Data as given in patent US11578062B2, “Solid forms of (R)-1(2,2-difluorobenzo[d][1,3]dioxol-5-yl)-N-(1-(2,3-dihydroxypropyl)-6-fluoro-2-(1-hydroxy-2-methylpropan-2-yl)-1H-indol-5-yl)cyclopropanecarboxamide” (Vertex Pharmaceuticals Incorporated, priority 2010, dated 2023).

Target: T1, ΔF508-CFTR (Homo sapiens, UniProt P13569, DEL508-508)
T1 construct: expressed in transfected cells
Experiment: Membrane potential optical assay for ΔF508-CFTR correction (FRET voltage-sensor dyes, VIPR)
Assay type: cell-based
Details: PercentActivity; NIH3T3 mouse fibroblasts stably expressing ΔF508-CFTR; procedures described above
Description: Assays for Detecting and Measuring ΔF508-CFTR Correction Properties of Compounds
Membrane potential optical methods for assaying ΔF508-CFTR modulation properties of compounds
The optical membrane potential assay utilized voltage-sensitive FRET sensors described by Gonzalez and Tsien (See, Gonzalez, J. E. and R. Y. Tsien (1995) “Voltage sensing by fluorescence resonance energy transfer in single cells” Biophys J 69(4): 1272-80, and Gonzalez, J. E. and R. Y. Tsien (1997) “Improved indicators of cell membrane potential that use fluorescence resonance energy transfer” Chem Biol 4(4): 269-77) in combination with instrumentation for measuring fluorescence changes such as the Voltage/Ion Probe Reader (VIPR) (See, Gonzalez, J. E., K. Oades, et al. (1999) “Cell-based assays and instrumentation for screening ion-channel targets” Drug Discov Today 4(9): 431-439).
These voltage sensitive assays are based on the change in fluorescence resonant energy transfer (FRET) between the membrane-soluble, voltage-sensitive dye, DiSBAC2(3), and a fluorescent phospholipid, CC2-DMPE, which is attached to the outer leaflet of the plasma membrane and acts as a FRET donor. […] The changes in fluorescence emission were monitored using VIPR™ II, which is an integrated liquid handler and fluorescent detector designed to conduct cell-based screens in 96- or 384-well microtiter plates. […]

T1 sequence (P13569 with tags, fused parts or gaps DEL508-508): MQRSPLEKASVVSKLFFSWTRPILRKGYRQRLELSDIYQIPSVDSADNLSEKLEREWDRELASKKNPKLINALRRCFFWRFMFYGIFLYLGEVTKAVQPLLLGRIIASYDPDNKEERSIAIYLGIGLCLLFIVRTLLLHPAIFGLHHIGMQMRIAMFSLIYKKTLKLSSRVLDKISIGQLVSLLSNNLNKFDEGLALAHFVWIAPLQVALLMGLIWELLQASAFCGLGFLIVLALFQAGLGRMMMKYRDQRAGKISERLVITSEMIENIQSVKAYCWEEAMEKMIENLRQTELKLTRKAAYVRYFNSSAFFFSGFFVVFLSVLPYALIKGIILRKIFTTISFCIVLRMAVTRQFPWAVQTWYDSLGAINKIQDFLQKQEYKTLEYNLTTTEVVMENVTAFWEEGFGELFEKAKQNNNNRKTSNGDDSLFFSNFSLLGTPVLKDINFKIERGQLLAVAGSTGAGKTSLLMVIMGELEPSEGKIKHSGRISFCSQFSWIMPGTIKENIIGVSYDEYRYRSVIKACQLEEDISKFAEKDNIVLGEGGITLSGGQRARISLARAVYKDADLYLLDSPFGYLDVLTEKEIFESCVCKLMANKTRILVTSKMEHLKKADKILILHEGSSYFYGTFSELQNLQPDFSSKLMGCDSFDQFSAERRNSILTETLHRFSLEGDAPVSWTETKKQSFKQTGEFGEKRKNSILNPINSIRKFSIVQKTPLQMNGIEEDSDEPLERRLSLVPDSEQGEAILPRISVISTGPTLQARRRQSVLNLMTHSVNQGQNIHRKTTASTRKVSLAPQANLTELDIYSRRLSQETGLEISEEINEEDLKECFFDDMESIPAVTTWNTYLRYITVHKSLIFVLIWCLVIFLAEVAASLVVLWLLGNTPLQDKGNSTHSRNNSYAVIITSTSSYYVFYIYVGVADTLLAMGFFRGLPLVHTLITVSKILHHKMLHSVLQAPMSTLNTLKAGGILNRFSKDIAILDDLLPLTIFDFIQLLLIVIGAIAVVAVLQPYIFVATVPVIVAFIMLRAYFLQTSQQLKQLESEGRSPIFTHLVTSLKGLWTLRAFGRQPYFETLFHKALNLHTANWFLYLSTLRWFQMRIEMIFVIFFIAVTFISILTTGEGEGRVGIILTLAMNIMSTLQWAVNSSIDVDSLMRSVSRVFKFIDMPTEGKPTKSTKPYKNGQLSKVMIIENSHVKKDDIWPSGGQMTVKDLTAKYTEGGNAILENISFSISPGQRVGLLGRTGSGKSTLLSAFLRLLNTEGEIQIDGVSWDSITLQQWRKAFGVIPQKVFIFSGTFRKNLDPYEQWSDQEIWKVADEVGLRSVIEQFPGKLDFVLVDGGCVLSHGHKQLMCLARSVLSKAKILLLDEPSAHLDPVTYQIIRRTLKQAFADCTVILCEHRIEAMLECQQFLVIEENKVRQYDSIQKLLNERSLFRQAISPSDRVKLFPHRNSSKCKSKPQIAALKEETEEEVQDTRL

## CC(C)(CO)c1cc2cc(NC(=O)C3(c4ccc5c(c4)OC(F)(F)O5)CC3)c(F)cc2n1C[C@@H](O)CO [Compound 1, (R)-1-(2,2-difluorobenzo[d][1,3]dioxol-5-yl)-N-(1-(2,3-dihydroxypropyl)-6-fluoro-2-(1-hydroxy-2-methylpropan-2-yl)-1H-indol-5-yl)cyclopropanecarboxamide]
  BinnedMaxEfficacy: +++ (PercentActivity Bins: + <= 25.0 < ++ <= 100.0 < +++)
